{
  "source": "patent US20220196659A1",
  "about": "“METHOD FOR DETERMINING EFFICACY” (LDN Pharma Limited, priority 2019, published 2022)",
  "key": {"pERK": {"tested_on": "pERK", "test": "PD analysis: Western blotting of PBMCs from normal volunteers after a single naltrexone tablet", "assay_type": "in vivo, human", "conditions": "Western blot", "protocol": "There were 5 treatment cohorts with 8 normal volunteers in each cohort. […] PBMCs were harvested at 0 and 48 h by ficoll extraction and lysed in cell lysis buffer. Western blotting was then performed on the samples, and pERK, tERK, BAX and p21 measured."}, "[1]": {"tested_on": "CD3+/CD8+ cells (killer T-cells)", "test": "CD3+ activation: CD69 expression of PBMCs cultured with LDN or NTX (flow cytometry)", "assay_type": "cell-based", "conditions": "48 h culture of PBMCs", "protocol": "Peripheral-blood mononuclear cells were isolated from whole blood or from the residue product of leucoreduction of whole blood from pathologically healthy donors using Histopaque-1077. The mononuclear fraction was harvested and red blood cell contamination removed by incubation in hypotonic ammonium chloride. Cells were washed in phosphate buffered saline (PBS) and platelet contamination removed by centrifugation at 200 g for 10 min, re-suspended at a concentration of 1×10^6 ml in RPMI-1640 culture medium. […] Peripheral-blood mononuclear cells were washed twice in wash buffer (PBS containing 1% (v/v) FBS and 0.09% (v/v) NaN3), and stained for 30 min at 4° C. with the relevant and stated antibodies for assessment of immune cell profile. Cells were washed in wash buffer and fixed in 4% paraformaldehyde for 20 min at 4° C. Expressions of the surface markers were analysed using a BD Bioscience LSR II flow cytometer with dedicated proprietary software."}},
  "data": [
    {"smiles": "O=C1CC[C@@]2(O)[C@H]3Cc4ccc(O)c5c4[C@@]2(CCN3CC2CC2)[C@H]1O5", "note": "[naltrexone, morphinan-6-one,17-(cyclopropylmethyl)-4,5-epoxy-3,14-dihydroxy-(5+)]", "values": [
      {"measurement": "level of pERK expression at 48 h compared to 0 h", "setting": "pERK; single dose 1 mg tablet", "value": "decreased"},
      {"measurement": "level of pERK expression at 48 h compared to 0 h", "setting": "pERK; single dose 3 mg tablet", "value": "increased"},
      {"measurement": "level of pERK expression at 48 h compared to 0 h", "setting": "pERK; single dose 4.5 mg tablet", "value": "decreased"},
      {"measurement": "level of pERK expression at 48 h compared to 0 h", "setting": "pERK; single dose 6 mg tablet", "value": "decreased"},
      {"measurement": "level of pERK expression at 48 h compared to 0 h", "setting": "pERK; single dose 10 mg tablet", "value": "decreased"},
      {"measurement": "CD69 expression in CD3+/CD8+ cells", "setting": "[1]; 10 nM naltrexone (LDN)", "value": "increased"},
      {"measurement": "CD69 expression in CD3+/CD8+ cells", "setting": "[1]; 10 uM naltrexone (NTX)", "value": "did not increase"}
    ]}
  ]
}
